Test results taken from ChEMBL document CHEMBL4266055, “Optimization of Phenyl Indole Inhibitors of the AAA+ ATPase p97” (ACS Med Chem Lett, 2018).
In brackets after ≈: the same amount, converted by molar mass.

What was measured:
[1] = target: T1, Transitional endoplasmic reticulum ATPase (Homo sapiens, UniProt P55072)
Description: Inhibition of recombinant full length human p97 (1 to 806 residues) expressed in Escherichia coli Rosetta 2 (DE3) using 100 uM ATP as substrate after 90 mins by luminescence assay

[2] = target: T1, Transitional endoplasmic reticulum ATPase; assay: Inhibition of human p97 in human HeLa cells harboring UbG76V-GFP assessed as accumulation of UbG76V after 1 hr by microscopic analysis; assay type: cell-based
[3] = system: Panel NCI-60 (60 carcinoma cell lines); assay: Growth inhibition of human NCI60 cells after 48 hrs by sulforhodamine B assay; assay type: functional
[4] = target: T1, Transitional endoplasmic reticulum ATPase; assay: Inhibition of human p97 in human HeLa cells harboring UbG76V-GFP assessed as accumulation of UbG76V after 6 hrs by microscopic analysis; assay type: cell-based
[5] = Half life in mouse liver microsomes at 10 uM in presence of NADPH/G6PD by LC-MS/MS analysis; assay type: ADME, microsome
[6] = Aqueous solubility of the compound in pH 7.4 buffer by UV/Vis spectroscopic analysis; assay type: physicochemical
[7] = Half life in human liver microsomes at 10 uM in presence of NADPH/G6PD by LC-MS/MS analysis; assay type: ADME, microsome
[8] = target: T1, Transitional endoplasmic reticulum ATPase; assay: Inhibition of recombinant full length human p97 (1 to 806 residues) expressed in Escherichia coli Rosetta 2 (DE3) using 20 uM ATP as substrate after 90 mins by luminescence assay

T1 sequence (P55072 whole entry): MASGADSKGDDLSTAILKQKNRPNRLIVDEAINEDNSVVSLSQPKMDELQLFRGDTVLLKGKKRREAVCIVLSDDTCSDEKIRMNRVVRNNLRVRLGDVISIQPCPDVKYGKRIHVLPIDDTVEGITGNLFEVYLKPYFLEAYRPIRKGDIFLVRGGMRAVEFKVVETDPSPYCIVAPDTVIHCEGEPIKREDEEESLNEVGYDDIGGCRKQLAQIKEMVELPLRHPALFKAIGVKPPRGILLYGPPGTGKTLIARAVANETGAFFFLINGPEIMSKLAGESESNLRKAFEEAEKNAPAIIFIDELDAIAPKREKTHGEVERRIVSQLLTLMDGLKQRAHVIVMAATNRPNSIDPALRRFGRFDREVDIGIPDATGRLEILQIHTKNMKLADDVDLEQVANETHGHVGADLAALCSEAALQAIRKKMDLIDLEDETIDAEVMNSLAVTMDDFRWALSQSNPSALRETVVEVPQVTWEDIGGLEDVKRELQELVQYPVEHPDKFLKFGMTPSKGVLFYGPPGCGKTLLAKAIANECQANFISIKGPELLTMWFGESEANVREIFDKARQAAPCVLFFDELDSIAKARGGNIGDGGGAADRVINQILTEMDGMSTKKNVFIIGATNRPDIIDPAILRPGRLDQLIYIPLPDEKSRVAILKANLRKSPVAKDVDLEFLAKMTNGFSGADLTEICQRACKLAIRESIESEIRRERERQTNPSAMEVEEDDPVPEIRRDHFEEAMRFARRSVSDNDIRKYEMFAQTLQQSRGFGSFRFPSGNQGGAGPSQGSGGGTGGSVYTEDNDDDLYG

| SMILES | IC50 [1] | also measured |
| --- | --- | --- |
| CC(C)N1CCN(C2CCN(c3cccc(-c4cc5cc(F)ccc5[nH]4)c3)CC2)CC1 | 4760 nM | – |
| CC(C)N1CCN(C2(CNC3CCN(c4cccc(-c5cc6cc(F)ccc6[nH]5)c4)CC3)CCC2)CC1 | 100 nM | – |
| CC(C)N1CCN(CCCNC2CCN(c3cccc(-c4cc5ccccc5[nH]4)c3)CC2)CC1 | 380 nM | – |
| c1ccc(CNC2CCN(c3cccc(-c4cc5ccccc5[nH]4)c3)CC2)nc1 | 1060 nM | – |
| CCN1CCN(CCNC2CCN(c3cccc(-c4cc5ccccc5[nH]4)c3)CC2)CC1 | 200 nM | – |
| CN(C)CCNC1CCN(c2cccc(-c3cc4cc(F)ccc4[nH]3)c2)CC1 | 800 nM | – |
| c1ccc(CCNC2CCN(c3cccc(-c4cc5ccccc5[nH]4)c3)CC2)cc1 | 2610 nM | – |
| CN1CCN(CCNC2CCN(c3cccc(-c4cc5ccccc5[nH]4)c3)CC2)CC1 | 280 nM | – |
| CC(C)N1CCN(CCNC2CCN(c3cccc(-c4cc5cc(F)ccc5[nH]4)c3)CC2)CC1 | 70 nM | – |
| CN1CCN(C2(CNC3CCN(c4cccc(-c5cc6cc(F)ccc6[nH]5)c4)CC3)CCC2)CC1 | 20 nM | EC50 [2]: 15000 nM; GI50 [3]: 2000 nM; EC50 [4]: > 40000 nM; t1/2 [5]: 4.62 h; solubility [6]: 330 µM (≈ 157 µg/mL); t1/2 [7]: 7.92 h |
| c1cc(-c2cc3ccccc3[nH]2)cc(N2CCC(NCCN3CCNCC3)CC2)c1 | 330 nM | – |
| c1ccc(CCNC2CCN(c3cccc(-c4cc5ccccc5[nH]4)c3)CC2)nc1 | 1050 nM | – |
| CC(C)N1CCN(C(=O)CCNC2CCN(c3cccc(-c4cc5cc(F)ccc5[nH]4)c3)CC2)CC1 | 190 nM | – |
| CC(C)N1CCC(NC2CCN(c3cccc(-c4cc5cc(F)ccc5[nH]4)c3)CC2)CC1 | 50 nM | EC50 [2]: 19000 nM; GI50 [3]: 1580 nM; EC50 [4]: > 40000 nM; t1/2 [5]: 6.43 h; solubility [6]: 380 µM (≈ 165 µg/mL); t1/2 [7]: 9.48 h |
| CC(C)N1CCN(C2(CNC3CCN(c4cccc(-c5cc6cc(F)ccc6[nH]5)c4)CC3)COC2)CC1 | 90 nM | – |
| Cc1cc(OCc2nnc(SC3CCCC3)n2-c2cccnc2)ccc1-c1ccc(S(C)(=O)=O)cc1 | – | t1/2 [5]: < 0.167 h; solubility [6]: 86 µM (≈ 44.8 µg/mL); t1/2 [7]: < 0.167 h |
| Cn1ncnc1CCNC1CCN(c2cccc(-c3cc4ccccc4[nH]3)c2)CC1 | 990 nM | IC50 [8]: 2400 nM |
| CC(C)(C)N1CCN(CCNC2CCN(c3cccc(-c4cc5ccccc5[nH]4)c3)CC2)CC1 | 210 nM | – |
